Source: the NIST ThermoML archive (doi:10.1016/j.jct.2019.04.023)

Test: xn = mol fraction of the nth substance listed
Settings: 101 kPa, Liquid; for mass density: Vibrating tube method; for viscosity: Falling or rolling sphere viscometry

CC[N+](CC)=C(N(C)C)N(C)C.O=S(=O)([N-]S(=O)(=O)C(F)(F)F)C(F)(F)F + CCO
Settings | mass density, 308.15 K [kg/m3] | mass density, 313.15 K [kg/m3] | mass density, 318.15 K [kg/m3] | mass density, 323.15 K [kg/m3] | viscosity, 313.15 K [mPa·s] | viscosity, 318.15 K [mPa·s] | viscosity, 323.15 K [mPa·s]
x1 = 0.0995 | 1004.84 | 1000.1 | 995.32 | 990.51 | 1.773 | 1.606 | 1.463
x1 = 0.1987 | 1121.91 | 1117.13 | 1112.33 | 1107.51 | 3.195 | 2.864 | 2.585
x1 = 0.299 | 1193.62 | 1188.87 | 1184.11 | 1179.33 | 5.364 | 4.758 | 4.253
x1 = 0.3991 | 1241.9 | 1237.18 | 1232.46 | 1227.73 | 7.841 | 6.927 | 6.158
x1 = 0.5075 | 1279.48 | 1274.79 | 1270.1 | 1265.41 | 10.98 | 9.662 | 8.555
x1 = 0.5956 | 1302.7 | 1298.03 | 1293.36 | 1288.7 | 14.08 | 12.36 | 10.91
x1 = 0.7065 | 1325.33 | 1320.7 | 1316.07 | 1311.45 | 18.73 | 16.3 | 14.31
x1 = 0.7983 | 1339.66 | 1335.04 | 1330.44 | 1325.84 | 23.34 | 20.16 | 17.59
x1 = 0.9106 | 1353.68 | 1349.09 | 1344.52 | 1339.96 | 29.46 | 25.22 | 21.82
x1 = 0.951 | 1358.24 | 1353.66 | 1349.1 | 1344.55 | 32.73 | 27.9 | 24.03
x1 = 1 | 1363.9 | 1359.32 | 1354.76 | 1350.21 | 36.79 | 31.25 | 26.79
